We go through seven compounds from patent US8541617B2, “Cycloalkylphenyl substituted cyclic ketoenols” (Bayer Cropscience AG, priority 2006, dated 2013).

The test system of one data set is Summer wheat. The data set is described as follows: Example C: Herbicidal post-emergence action, use of safeners (crop plant damage). In kind it is in vivo. Particulars: for Summer wheat observed (%): no safener; for Summer wheat observed (%), 10 days after application / Summer wheat observed (%), 28 days after application: greenhouse container trial. The protocol:
(§1) Herbicidal Post-Emergence Action
(§2) Seeds of monocotylos and dicotylos weed and crop plants are placed into sandy lawn in wood fibre pots or in plastic pots, covered with soil and cultivated in a greenhouse, during the vegetation period also outdoors outside of the greenhouse, under good growth conditions. Two to three weeks after sowing, the test plants are treated at the one- to three-leaf stage. The test compounds, formulated as wettable powders (WP) or liquid (EC), are, in the various dosages at a water application rate of 300 l/ha (converted), with wetting agent (0.2 to 0.3%) added, sprayed onto the plants and the surface of the soil. […]
(§3) If it is additionally to be tested as to whether safeners can improve the plant compatibility of test substances in the case of crop plants, the following options are used for applying the safener: • seeds of the crop plants are, before sowing, dressed with safener substance (the amount of safener stated in percent, based on the weight of the seed) • before the application of the test substances, the crop plants are sprayed with the safener at a certain application rate per hectare (usually 1 day before the application of the test substances) • the safener is applied together with the test substance as a tank mix (the amount of safener is stated in g/ha or as a ratio, based on the herbicide).
(§4) By comparing the effect of test substances on crop plants without or with safener treatment, it is possible to assess the effect of the safener substance.
(§5) Container trials in the greenhouse, treatment with safener 1 day prior to herbicide application

A further data set relates to Summer barley. The description is as above. In kind it is in vivo. Particulars: for Summer barley observed (%), 10 days after application / Summer barley observed (%), 28 days after application: greenhouse container trial; for Summer barley observed (%): no safener. As to the method: as §1, §2, §3, §4, §5
Setting [1] is: 10 days after application, 25 g of a.i./ha.
Setting [2] is: 10 days after application, 50 g of a.i./ha.
Where [3] appears, read: 10 days after application, 100 g of a.i./ha.
[4] abbreviates: 10 days after application, 12.5 g of a.i./ha.
The mark [5] stands for this setting: 28 days after application, 25 g of a.i./ha.
Where [6] appears, read: 28 days after application, 12.5 g of a.i./ha.
The mark [7] stands for this setting: 28 days after application, 50 g of a.i./ha.
Where [8] appears, read: 28 days after application, 100 g of a.i./ha.
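For Summer barley observed (%), 10 days after application in this document: 100% means plants died and 0% means like untreated controls.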
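For Summer barley observed (%), 28 days after application in this document: 100% means plants died and 0% means like untreated controls.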
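For Summer wheat observed (%), 10 days after application in this document: 100% means plants died and 0% means like untreated controls.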
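For Summer wheat observed (%), 28 days after application in this document: 100% means plants died and 0% means like untreated controls.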

For the compound `Cc1cc(C)c(C2=C(O)C(C)(C)NC2=O)c(C2CC2)c1` [Example I-1-a-8], the entries for the “Summer wheat observed (%)” value in the data set on Summer wheat (setting [1]), with Summer wheat (setting [2]) and with Summer wheat (setting [3]) were 25%, 30% and 30%, respectively.
Take `CCOC1CCCC2(CC1)NC(=O)C(c1c(C)cc(C)cc1C1CC1)=C2O` (stereo not shown) [Example I-1-a-9]: the entries for the “Summer wheat observed (%)” value in the data set on Summer wheat (setting [4]), in the data set on Summer wheat (setting [1]) and with Summer wheat (setting [5]) were 60%, 65% and 50%, respectively.
As for `CCc1cc(C)cc(C2CC2)c1C1=C(O)C(C)(C)NC1=O` [Example I-1-a-5], the “Summer wheat observed (%), 10 days after application” value in the data set with Summer wheat (6.25 g of a.i./ha) is reported as 50%; in the data set on Summer wheat (12.5 g of a.i./ha), 60%; in the data set on Summer wheat (25 g of a.i./ha), 70%; with Summer wheat (50 g of a.i./ha), 70%. Moreover, the “Summer wheat observed (%), 28 days after application” value with Summer wheat (6.25 g of a.i./ha) worked out at 10%; with Summer wheat (12.5 g of a.i./ha), 40%; in the data set on Summer wheat (25 g of a.i./ha), 60%; in the data set on Summer wheat (50 g of a.i./ha) it was 75%. In addition, the “Summer barley observed (%), 10 days after application” value in the data set with Summer barley (12.5 g of a.i./ha) is 50%; with Summer barley (25 g of a.i./ha) it was 70%; in the data set on Summer barley (50 g of a.i./ha), 80%. Further, the “Summer barley observed (%), 28 days after application” value with Summer barley (12.5 g of a.i./ha) is 15%; in the data set with Summer barley (25 g of a.i./ha), 25%; in the data set on Summer barley (50 g of a.i./ha) it was 40%.
As to `CCCCOC1CCCC2(C1)NC(=O)C(c1c(Cl)cc(C)cc1C1CC1)=C2O` (stereo not shown) [Example I-1-a-12], the “Summer wheat observed (%), 10 days after application” value was 10% in the data set on Summer wheat (6.25 g of a.i./ha), 40% with Summer wheat (12.5 g of a.i./ha) and 50% in the data set on Summer wheat (25 g of a.i./ha). For the same compound, the “Summer wheat observed (%)” value in the data set with Summer wheat (10 days after application, 6.25 g of a.i./ha) stood at 30%; in the data set on Summer wheat (setting [4]), 50%; in the data set with Summer wheat (setting [1]), 60%; in the data set on Summer wheat (setting [2]), 60%; in the data set on Summer wheat (28 days after application, 6.25 g of a.i./ha) it was 5%; in the data set on Summer wheat (setting [6]), 25%. For the same compound, the “Summer wheat observed (%)” value in the data set on Summer wheat (setting [5]) and in the data set with Summer wheat (setting [7]) was 65% in each case.
As to `CCOC(=O)OC1=C(c2c(C3CC3)cc(C)cc2C2CC2)C(=O)NC1(C)C` [Example I-1-c-13], the “Summer wheat observed (%)” value in the data set on Summer wheat (setting [4]) is on record as 20%; with Summer wheat (setting [1]), 30%; in the data set with Summer wheat (setting [2]) it was 40%. The “Summer barley observed (%)” value amounted to 5% with Summer barley (setting [4]), 20% in the data set with Summer barley (setting [1]) and 30% with Summer barley (setting [2]).
With `CCOC(=O)OC1=C(c2c(C)cc(C)cc2C2CC2)C(=O)NC12CCC(OC)CC2` (single isomer, unassigned) [Example I-1-c-7], the “Summer wheat observed (%)” value was 20% with Summer wheat (setting [4]); 60% with Summer wheat (setting [1]); 10% in the data set with Summer wheat (setting [6]); 20% in the data set on Summer wheat (setting [5]); 80% in the data set with Summer wheat (setting [7]). Moreover, the “Summer barley observed (%)” value is reported as 10% with Summer barley (setting [4]); 40% with Summer barley (setting [1]); 60% in the data set with Summer barley (setting [2]); 90% in the data set with Summer barley (setting [3]); 50% with Summer barley (setting [7]); 95% in the data set on Summer barley (setting [8]).
Take `CCOC1CCCC2(C1)NC(=O)C(c1c(Cl)cc(C)cc1C1CC1)=C2O` (stereo not shown) [Example I-1-a-14]: the “Summer wheat observed (%)” value in the data set on Summer wheat (setting [6]) is 20%; with Summer wheat (setting [5]), 50%; in the data set on Summer wheat (setting [7]), 75%; in the data set on Summer wheat (setting [8]), 85%. Moreover, the results for the “Summer barley observed (%)” value in the data set on Summer barley (setting [6]), in the data set with Summer barley (setting [5]) and in the data set on Summer barley (setting [7]) were 20%, 60% and 70%, respectively.
